Assay results reported in patent publication EP4467141A1, “PYRAZOLO-QUINOLINES AS SELECTIVE INHIBITORS OF GENOTOXIC STRESS-INDUCED IKK/NF- KB PATHWAYS FOR CANCER THERAPY” (Max-Delbrück-Centrum für Molekulare Medizin in der …, priority 2023, dated 2024).

What was measured:
Assay in all cases: Kinase panel study
Assay type in all cases: biochemical
Settings in all cases: read-out: Percentage of inhibition; for inhibition at 1 µM: 1000nM; for inhibition at 10 µM: 10000nM
ABL1 F317I = molecular target: T1, ABL1 F317I (Homo sapiens, UniProt P00519, F317I)
T1 construct: purchased Thermo Fisher Scientific
Summary of the method: (§1)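 Lead compounds and derivatives were profiled by ZLyte or Adapta in vitro kinase assays. Each value reports inhibition percentage at one of two concentrations, 1 µM or 10 µM.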

CHEK1 (CHK1) = molecular target: T2, CHEK1 (CHK1) (Homo sapiens, UniProt O14757)
T2 construct: purchased Thermo Fisher Scientific
T2 sequence (O14757 1-476): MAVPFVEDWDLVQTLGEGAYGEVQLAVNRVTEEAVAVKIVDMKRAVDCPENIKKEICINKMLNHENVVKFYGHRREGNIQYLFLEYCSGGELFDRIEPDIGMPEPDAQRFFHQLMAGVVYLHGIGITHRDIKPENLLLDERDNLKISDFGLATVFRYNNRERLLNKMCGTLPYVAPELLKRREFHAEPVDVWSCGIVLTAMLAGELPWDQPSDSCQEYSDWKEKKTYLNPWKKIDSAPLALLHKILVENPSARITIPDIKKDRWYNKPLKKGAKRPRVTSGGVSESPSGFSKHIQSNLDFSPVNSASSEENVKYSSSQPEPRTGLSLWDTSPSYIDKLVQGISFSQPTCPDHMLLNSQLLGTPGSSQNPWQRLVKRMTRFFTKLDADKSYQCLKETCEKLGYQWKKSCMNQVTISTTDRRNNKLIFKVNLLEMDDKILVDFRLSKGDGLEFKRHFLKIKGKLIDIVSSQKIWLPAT
Summary of the method: as §1

CSNK2A2 (CK2 alpha 2) = molecular target: T3, CSNK2A2 (CK2 alpha 2) (Homo sapiens, UniProt P19784)
T3 construct: purchased Thermo Fisher Scientific
Summary of the method: as §1

KSR2 = molecular target: T4, KSR2 (Homo sapiens, UniProt Q6VAB6)
T4 construct: purchased Thermo Fisher Scientific
T4 sequence (Q6VAB6 1-950): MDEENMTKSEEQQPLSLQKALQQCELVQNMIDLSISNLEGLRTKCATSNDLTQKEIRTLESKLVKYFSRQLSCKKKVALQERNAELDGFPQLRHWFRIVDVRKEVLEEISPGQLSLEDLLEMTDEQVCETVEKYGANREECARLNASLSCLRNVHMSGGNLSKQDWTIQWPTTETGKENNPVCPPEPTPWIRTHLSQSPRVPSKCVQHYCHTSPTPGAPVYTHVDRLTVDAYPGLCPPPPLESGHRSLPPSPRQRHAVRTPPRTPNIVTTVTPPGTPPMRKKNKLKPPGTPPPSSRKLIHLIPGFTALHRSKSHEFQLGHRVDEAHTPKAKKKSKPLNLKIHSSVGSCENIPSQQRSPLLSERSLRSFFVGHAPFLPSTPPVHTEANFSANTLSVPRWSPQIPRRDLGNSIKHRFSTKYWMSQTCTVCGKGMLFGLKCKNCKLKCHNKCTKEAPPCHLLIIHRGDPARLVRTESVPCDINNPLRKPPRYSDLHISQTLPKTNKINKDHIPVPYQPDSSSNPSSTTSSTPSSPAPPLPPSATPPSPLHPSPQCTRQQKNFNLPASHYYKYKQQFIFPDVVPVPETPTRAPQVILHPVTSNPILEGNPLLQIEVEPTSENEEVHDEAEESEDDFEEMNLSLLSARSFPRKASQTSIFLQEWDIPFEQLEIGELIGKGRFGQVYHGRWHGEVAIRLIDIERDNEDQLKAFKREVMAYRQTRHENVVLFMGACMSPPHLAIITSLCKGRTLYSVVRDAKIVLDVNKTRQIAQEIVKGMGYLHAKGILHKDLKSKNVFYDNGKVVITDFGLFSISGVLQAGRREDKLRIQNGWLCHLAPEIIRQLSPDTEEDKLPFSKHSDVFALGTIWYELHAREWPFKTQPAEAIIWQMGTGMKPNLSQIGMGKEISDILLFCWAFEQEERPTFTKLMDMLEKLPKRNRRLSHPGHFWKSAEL
Summary of the method: as §1

PRKCQ (PKC theta) = molecular target: T5, PRKCQ (PKC theta) (Homo sapiens, UniProt Q04759)
T5 construct: purchased Thermo Fisher Scientific
Summary of the method: as §1

SBK1 = molecular target: T6, SBK1 (Homo sapiens, UniProt Q52WX2)
T6 construct: purchased Thermo Fisher Scientific
Summary of the method: as §1

T5 sequence (Q04759 whole entry): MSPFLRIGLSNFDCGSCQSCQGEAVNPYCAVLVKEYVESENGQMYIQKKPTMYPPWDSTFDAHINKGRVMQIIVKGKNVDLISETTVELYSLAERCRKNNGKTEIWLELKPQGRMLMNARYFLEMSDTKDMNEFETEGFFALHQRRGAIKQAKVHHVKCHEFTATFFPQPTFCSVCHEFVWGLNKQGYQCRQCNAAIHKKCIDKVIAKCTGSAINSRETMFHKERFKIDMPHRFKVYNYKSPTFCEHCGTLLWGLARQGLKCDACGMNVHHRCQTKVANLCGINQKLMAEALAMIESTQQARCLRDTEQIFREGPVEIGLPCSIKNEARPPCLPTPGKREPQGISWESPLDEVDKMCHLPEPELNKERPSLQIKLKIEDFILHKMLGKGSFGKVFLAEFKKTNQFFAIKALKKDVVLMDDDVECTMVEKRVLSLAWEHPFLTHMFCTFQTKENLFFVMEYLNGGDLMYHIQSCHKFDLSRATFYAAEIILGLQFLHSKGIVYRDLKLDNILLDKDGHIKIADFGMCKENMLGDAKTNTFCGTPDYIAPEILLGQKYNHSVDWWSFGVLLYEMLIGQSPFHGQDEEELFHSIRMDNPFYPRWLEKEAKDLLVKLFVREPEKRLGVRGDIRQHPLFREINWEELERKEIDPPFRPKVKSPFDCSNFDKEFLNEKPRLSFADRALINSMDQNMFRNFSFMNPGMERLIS
T3 sequence (P19784 whole entry): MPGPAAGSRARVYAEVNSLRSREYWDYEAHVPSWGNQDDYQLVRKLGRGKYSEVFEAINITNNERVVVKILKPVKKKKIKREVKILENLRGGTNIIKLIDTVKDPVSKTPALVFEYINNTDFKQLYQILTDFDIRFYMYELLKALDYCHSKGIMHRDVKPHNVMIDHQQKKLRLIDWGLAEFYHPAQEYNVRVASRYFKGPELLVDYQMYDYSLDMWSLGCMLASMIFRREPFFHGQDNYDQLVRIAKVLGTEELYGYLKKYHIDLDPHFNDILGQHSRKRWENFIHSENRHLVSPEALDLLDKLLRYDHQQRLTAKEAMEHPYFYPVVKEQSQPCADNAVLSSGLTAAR
T6 sequence (Q52WX2 whole entry): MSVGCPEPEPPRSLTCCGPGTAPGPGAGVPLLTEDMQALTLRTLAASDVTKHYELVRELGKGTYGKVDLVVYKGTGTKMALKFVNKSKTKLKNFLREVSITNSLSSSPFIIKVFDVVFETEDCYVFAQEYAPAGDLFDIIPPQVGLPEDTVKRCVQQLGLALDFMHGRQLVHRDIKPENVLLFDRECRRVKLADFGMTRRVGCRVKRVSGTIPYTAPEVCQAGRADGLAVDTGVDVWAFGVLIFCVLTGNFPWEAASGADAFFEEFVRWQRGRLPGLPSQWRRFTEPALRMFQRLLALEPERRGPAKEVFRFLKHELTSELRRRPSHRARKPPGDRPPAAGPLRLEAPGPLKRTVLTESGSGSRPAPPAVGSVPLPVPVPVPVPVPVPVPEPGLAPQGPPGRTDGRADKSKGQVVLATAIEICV
T1 sequence (P00519 whole entry F317I): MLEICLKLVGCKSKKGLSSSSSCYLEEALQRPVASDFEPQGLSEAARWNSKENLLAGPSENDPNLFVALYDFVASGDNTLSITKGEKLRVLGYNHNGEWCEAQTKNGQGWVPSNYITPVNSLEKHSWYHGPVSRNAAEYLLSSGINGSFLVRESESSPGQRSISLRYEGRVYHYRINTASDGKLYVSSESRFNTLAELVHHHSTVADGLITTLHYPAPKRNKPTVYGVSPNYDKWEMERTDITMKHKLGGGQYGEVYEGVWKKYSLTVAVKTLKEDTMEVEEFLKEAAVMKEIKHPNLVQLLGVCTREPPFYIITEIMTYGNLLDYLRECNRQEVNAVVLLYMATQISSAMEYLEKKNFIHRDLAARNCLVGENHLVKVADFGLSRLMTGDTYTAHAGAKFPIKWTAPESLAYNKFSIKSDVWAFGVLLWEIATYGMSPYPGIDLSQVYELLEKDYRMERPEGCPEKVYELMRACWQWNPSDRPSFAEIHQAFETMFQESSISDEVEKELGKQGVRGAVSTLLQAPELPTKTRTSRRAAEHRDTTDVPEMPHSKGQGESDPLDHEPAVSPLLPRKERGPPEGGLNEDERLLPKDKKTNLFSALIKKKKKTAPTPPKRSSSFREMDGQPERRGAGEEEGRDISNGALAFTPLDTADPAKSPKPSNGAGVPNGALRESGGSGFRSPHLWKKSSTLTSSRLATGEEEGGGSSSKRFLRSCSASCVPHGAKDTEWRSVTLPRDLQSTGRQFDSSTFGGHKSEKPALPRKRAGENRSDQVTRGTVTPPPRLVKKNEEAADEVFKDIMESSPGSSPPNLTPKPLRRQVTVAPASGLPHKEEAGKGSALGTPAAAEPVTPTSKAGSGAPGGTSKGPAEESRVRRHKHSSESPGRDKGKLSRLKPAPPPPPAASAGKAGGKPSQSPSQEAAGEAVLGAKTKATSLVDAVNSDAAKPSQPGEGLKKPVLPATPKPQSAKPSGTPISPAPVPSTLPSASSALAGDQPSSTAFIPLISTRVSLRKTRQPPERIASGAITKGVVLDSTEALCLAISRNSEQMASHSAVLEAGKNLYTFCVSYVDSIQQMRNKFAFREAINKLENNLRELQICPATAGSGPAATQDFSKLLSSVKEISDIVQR

Compound	inhibition at 1 µM (ABL1 F317I)	inhibition at 10 µM (ABL1 F317I)	inhibition at 1 µM (CHEK1 (CHK1))	inhibition at 10 µM (CHEK1 (CHK1))	inhibition at 1 µM (CSNK2A2 (CK2 alpha 2))	inhibition at 10 µM (CSNK2A2 (CK2 alpha 2))	inhibition at 1 µM (KSR2)	inhibition at 10 µM (KSR2)	inhibition at 1 µM (PRKCQ (PKC theta))	inhibition at 10 µM (PRKCQ (PKC theta))	inhibition at 1 µM (SBK1)	inhibition at 10 µM (SBK1)
COc1ccc2c(c1OC)c(=O)n1c3ccc(O)cc3c3ccnc2c31 [MW01, 5-Hydroxy-10,11-dimethoxy-9H-benzo[c]indolo[3,2,1-ij][1,5]naphthyridin-9-one]	8%	19%	4%	13%	16%	29%	5%	8%	4%	21%	3%	3%
COc1ccc2cc3c(N)nn(C(=O)c4cccc(N(C)C)c4)c3nc2c1 [MW05, (3-Amino-7-methoxypyrazolo[3,4-b]quinolin-1-yl)-[3-(dimethylamino)phenyl]methanone]	6%	-1%	16%	27%	7%	4%	7%	-2%	2%	-15%	-7%	-26%
